Key:
MDA-MB231 = assay: Antiproliferation activity in vitro, cell count after 72 hours, sensitive breast tumoral line; format: cell-based; settings: MDA-MB-231, MDA-MB231 sensitive human breast tumoral line, read-out: IC50 (MDA-MB231), concentration causing 50% inhibition of the cell proliferation
Protocol: (§1) The various compounds under test, dissolved in ethyl alcohol, were added at serial dilutions and the treated cells and control cells were incubated with ^3H-estradiol or in the presence of diethylstilbestrol according to the methods described by literature. The antiproliferation activity were verified in the same way by adding the compounds, dissolved in DMSO, to the medium and performing a cell count after 72 hours.

MCF7 ADRr = assay: Antiproliferation activity in vitro, cell count after 72 hours, adriamycin-resistant breast tumoral line; format: cell-based; settings: MCF7 ADRr adriamycin-resistant human breast tumoral line, read-out: IC50 (MCF7 ADRr), concentration causing 50% inhibition of the cell proliferation
Protocol: as §1

[1] = tested on: type II estrogen receptors; assay: Binding to type II estrogen receptors, displacement of 3H-estradiol in tumor cells; settings: read-out: IC50, concentration causing 50% displacement of the estradiol labelled by its own receptor
Protocol: The binding to type II estrogen receptors was evaluated in ovarian tumor cells and tumor cells of other target organs. The cells were grown in a single layer according to the known techniques reported in the literature. To make the test reproducibility, the cells were trypsin treated, every week and placed on plates at a density of 8×10^4 cells/cm^2 and incubated at 37° C. in air containing 5% CO2.
as §1

Structure (SMILES)	IC50 (MDA-MB231)	IC50 (MCF7 ADRr)	IC50 [1]	melting point
C=C(C)COc1ccc(C(=O)C=Cc2c[nH]c3ccccc23)c(O)c1 [Compound VI, 1-[2-Hydroxy-4-(2-methylallyloxy)-phenyl]-3-(indole-3-yl)-propen-1-one]	9.6 µM	8.8 µM	3.4 µM	–
C=C(C)COc1ccc(C(=O)C=Cc2ccccc2)c(O)c1 [Compound XV, 1-(2-Hydroxy-4-(2-methylallyloxy)-phenyl)-3-(phenyl)-propen-1-one]	10.7 µM	7.1 µM	2.9 µM	–
C#CCOc1ccc(C(=O)C=Cc2ccc(C#N)cc2)c(O)c1 [Compound XXIV, 1-(2-Hydroxy-4-(prop-2-ynyloxy)-phenyl)-3-(4-cyanophenyl)-propen-1-one]	–	–	–	188 to 190 °C
CC(C)=CCOc1ccc(C(=O)C=Cc2cccc([N+](=O)[O-])c2)c(O)c1 [Compound XX, 1-(2-Hydroxy-4-(3-methylbut-2-enyloxy)-phenyl)-3-(3-nitrophenyl)-propen-1-one]	–	–	–	125 to 126 °C
CC(C)=CCOc1ccc(C(=O)C=Cc2ccc(C(F)(F)F)cc2)c(O)c1 [Compound XXII, 1-(2-Hydroxy-4-(3-methylbut-2-enyloxy)-phenyl)-3-(4-trifluoromethylphenyl)-propen-1-one]	–	–	–	122 to 123 °C
C#CCOc1ccc(C(=O)C=Cc2ccccc2)c(O)c1 [Compound XVI, 1-(2-Hydroxy-4-(prop-2-ynyloxy)-phenyl)-3-(phenyl)-propen-1-one]	8.9 µM	8.4 µM	4.4 µM	–
C=C(C)COc1ccc(C(=O)C=Cc2ccc(OC)cc2OC)c(O)c1 [Compound XVII, 1-(2-Hydroxy-4-(2-methylallyloxy)-phenyl)-3-(2,4-dimethoxyphenyl)-propen-1-one]	4.3 µM	5.6 µM	5.5 µM	106 to 107 °C
C#CCOc1ccc(C(=O)C=Cc2cccs2)c(O)c1 [Compound XIII, 1-(2-Hydroxy-4-(prop-2-ynyloxy)-phenyl)-3-(2-thienyl)-propen-1-one]	4.9 µM	5.1 µM	4.3 µM	–
C#CCOc1ccc(C(=O)C=Cc2cccnc2)c(O)c1 [Compound X, 1-[2-hydroxy-4-(prop-2-ynyloxy)-phenyl]-3-(pyridine-3-yl)propen-1-one]	3.7 µM	3.7 µM	2.8 µM	115 to 117 °C
CC(C)=CCOc1ccc(C(=O)C=Cc2ccncc2)c(O)c1 [Compound I, 1-[2-Hydroxy-4-(3-methylbut-2-enyloxy)-phenyl]-3(pyridine-4-yl)-propen-1-one]	3.2 µM	2.8 µM	1.1 µM	99 to 100 °C
C=C(C)COc1ccc(C(=O)C=Cc2cccnc2)c(O)c1 [Compound VIII, 1-[2-Hydroxy-4-(2-methylallyloxy)-phenyl]-3-(pyridine-3-yl)-propen-1-one]	5.4 µM	6 µM	4 µM	164 to 166 °C
CC(C)=CCOc1ccc(C(=O)C=Cc2c[nH]c3ccccc23)c(O)c1 [Compound V, 1-[2-hydroxy-4-(3-methylbut-2-enyloxy)-phenyl]-3-(indole-3-yl)-propen-1-one]	11 µM	6.8 µM	2.8 µM	–
C=C(C)COc1ccc(C(=O)C=Cc2ccc(Br)cc2)c(O)c1 [Compound XVIII, 1-(2-Hydroxy-4-(2-methylallyloxy)-phenyl)-3-(4-bromophenyl)-propen-1-one]	–	–	–	121 to 122 °C
C=C(C)COc1ccc(C(=O)C=Cc2cccs2)c(O)c1 [Compound XII, 1-(2-Hydroxy-4-(2-methylallyloxy)-phenyl)-3-(2-thienyl)-propen-1-one]	5.3 µM	3.9 µM	2.7 µM	–
C#CCOc1ccc(C(=O)C=Cc2c[nH]c3ccccc23)c(O)c1 [Compound VII, 1-[2-hydroxy-4-(prop-2-ynyloxy)-phenyl]-3-(indole-3-yl)propen-1-one]	7.1 µM	9.4 µM	5.2 µM	–
C=C(C)COc1ccc(C(=O)C=Cc2ccc(N(C)C)cc2)c(O)c1 [Compound IV, 1-[2-hydroxy-4-(2-methylallyloxy)-phenyl]-3-(4-dimethylaminophenyl)-propen-1-one]	7.5 µM	9.4 µM	1.7 µM	85 to 87 °C
CC(C)=CCOc1ccc(C(=O)C=Cc2ccc(F)cc2)c(O)c1 [Compound XIX, 1-(2-Hydroxy-4-(3-methylbut-2-enyloxy)-phenyl)-3-(4-fluorophenyl)-propen-1-one]	–	–	–	96 to 97 °C
CC(C)=CCOc1ccc(C(=O)C=Cc2c(Cl)cccc2Cl)c(O)c1 [Compound XXI, 1-(2-Hydroxy-4-(3-methylbut-2-enyloxy)-phenyl)-3-(2,6-dichlorophenyl)-propen-1-one]	–	–	–	101 to 102 °C
CC(=O)Nc1ccc(C=CC(=O)c2ccc(OCC=C(C)C)cc2O)cc1 [Compound III, 1-[2-hydroxy-4-(3-methylbut-2-enyloxy)-phenyl]-3-(4-acetamidophenyl)-propen-1-one]	8.2 µM	7 µM	4.2 µM	–
C=C(C)COc1ccc(C(=O)C=Cc2cccc(OC)c2)c(O)c1 [Compound IX, 1-[2-hydroxy-4-(2-methylallyloxy)-phenyl]-3-(3-methoxyphenyl)-propen-1-one]	5 µM	8.9 µM	3.1 µM	97 to 100 °C
C#CCOc1ccc(C(=O)C=Cc2c(OC)cc(OC)cc2OC)c(O)c1 [Compound XXIII, 1-(2-Hydroxy-4-(prop-2-ynyloxy)-phenyl)-3-(2,4,6-trimethoxyphenyl)-propen-1-one]	–	–	–	177 to 179 °C
CC(C)=CCOc1ccc(C(=O)C=Cc2ccc(C)cc2)c(O)c1 [Compound XXV, 1-(2-Hydroxy-4-(3-methylbut-2-enyloxy)-phenyl)-3-(4-methylphenyl)-propen-1-one]	–	–	–	108 to 109 °C
CC(C)=CCOc1ccc(C(=O)C=Cc2cccnc2)c(O)c1 [Compound II, 1-[2-Hydroxy-4-(3-methylbut-2-enyloxy)-phenyl]-3(pyridine-3-yl)-propen-1-one]	3.2 µM	2.2 µM	3.3 µM	177 to 179 °C
CSc1ccc(C=CC(=O)c2ccc(OCC=C(C)C)cc2O)cc1 [Compound XXVI, 1-(2-Hydroxy-4-(3-methylbut-2-enyloxy)-phenyl)-3-(4-methylthiophenyl)-propen-1-one]	–	–	–	130 to 131 °C
CC(C)=CCOc1ccc(C(=O)C=Cc2cccs2)c(O)c1 [Compound XI, 1-(2-Hydroxy-4-(3-methylbut-2-enyloxy)-phenyl)-3-(2-thienyl)-propen-1-one]	4.1 µM	3.6 µM	1.4 µM	–
CC(C)=CCOc1ccc(C(=O)C=Cc2ccco2)c(O)c1 [Compound XIV, 1-(2-Hydroxy-4-(3-methylbut-2-enyloxy)-phenyl)-3-(2-furyl)-propen-1-one]	5.7 µM	6.3 µM	3.2 µM	–

From patent publication US6423740B1, “Chalcones having antiproliferative activity” (Indena S.p.A., priority 1997, dated 2002)
